ChEMBL document CHEMBL5214910, “Rational Design of Dipicolylamine-Containing Carbazole Amphiphiles Combined with Zn2+ as Potent Broad-Spectrum Antibacterial Agents with a Membrane-Disruptive Mechanism” (J Med Chem, 2021)
Converted amounts (≈) assume the structure as drawn.

What was measured:
Escherichia coli [1] = experiment: Antibacterial activity Escherichia coli ATCC 25922 assessed as inhibition of bacterial growth incubated for 24 hrs in the presence of 12.5 ug/mL Zn2+ by Muller hinton broth based dilution assay; type: functional
Pseudomonas aeruginosa [2] = experiment: Antibacterial activity Pseudomonas aeruginosa ATCC 9027 assessed as inhibition of bacterial growth incubated for 24 hrs by Muller hinton broth based dilution assay; type: functional
Acinetobacter baumannii [3] = experiment: Antibacterial activity against Acinetobacter baumannii R2889 assessed as inhIbition of bacterial growth incubated for 24 hrs in the presence of 12.5 ug/mL Zn2+ by Muller hinton broth based dilution assay; type: functional
Staphylococcus aureus [4] = experiment: Antibacterial activity against Methicillin-resistant Staphylococcus aureus N315 assessed as inhibition of bacterial growth incubated for 24 hrs by Muller hinton broth based dilution assay; type: functional
Pseudomonas aeruginosa [5] = experiment: Antibacterial activity Pseudomonas aeruginosa ATCC 9027 assessed as inhibition of bacterial growth incubated for 24 hrs in the presence of 12.5 ug/mL Zn2+ by Muller hinton broth based dilution assay; type: functional
Escherichia coli [6] = experiment: Antibacterial activity Escherichia coli ATCC 25922 assessed as inhibition of bacterial growth incubated for 24 hrs by Muller hinton broth based dilution assay; type: functional
Staphylococcus aureus [7] = experiment: Antibacterial activity against Methicillin-resistant Staphylococcus aureus NCTC10442 assessed as inhibition of bacterial growth incubated for 24 hrs in the presence of 12.5 ug/mL Zn2+ by Muller hinton broth based dilution assay; type: functional
Acinetobacter baumannii [8] = experiment: Antibacterial activity against Acinetobacter baumannii R2889 assessed as inhIbition of bacterial growth incubated for 24 hrs by Muller hinton broth based dilution assay; type: functional
Acinetobacter baumannii [9] = experiment: Antibacterial activity against Acinetobacter baumannii ATCC 17978 assessed as inhIbition of bacterial growth incubated for 24 hrs by Muller hinton broth based dilution assay; type: functional
Acinetobacter baumannii [10] = experiment: Antibacterial activity against Acinetobacter baumannii ATCC 17978 assessed as inhIbition of bacterial growth incubated for 24 hrs in the presence of 12.5 ug/mL Zn2+ by Muller hinton broth based dilution assay; type: functional
Staphylococcus aureus [11] = experiment: Antibacterial activity against Methicillin-resistant Staphylococcus aureus NCTC10442 assessed as inhibition of bacterial growth incubated for 24 hrs by Muller hinton broth based dilution assay; type: functional
Staphylococcus aureus [12] = experiment: Antibacterial activity against Staphylococcus aureus ATCC 29213 assessed as inhibition of bacterial growth incubated for 24 hrs in the presence of 12.5 ug/mL Zn2+ by Muller hinton broth based dilution assay; type: functional
Staphylococcus aureus [13] = experiment: Antibacterial activity against Staphylococcus aureus ATCC 29213 assessed as inhibition of bacterial growth incubated for 24 hrs by Muller hinton broth based dilution assay; type: functional
Staphylococcus aureus [14] = experiment: Antibacterial activity against Methicillin-resistant Staphylococcus aureus N315 assessed as inhibition of bacterial growth incubated for 24 hrs in the presence of 12.5 ug/mL Zn2+ by Muller hinton broth based dilution assay; type: functional
[15] = Hemolytic activity in rabbit RBC incubated for 1 hrs in the presence of 12.5 ug/mL Zn2+ by fluorescence based microplate reader assay; type: toxicity, cell-based, Oryctolagus cuniculus, Erythrocyte; settings: rabbit red blood cells (erythrocytes)
[16] = Hemolytic activity in rabbit RBC incubated for 1 hrs by fluorescence based microplate reader assay; type: toxicity, cell-based, Oryctolagus cuniculus, Erythrocyte; settings: rabbit red blood cells (erythrocytes)
Pseudomonas aeruginosa [17] = experiment: Antibacterial activity against Pseudomonas aeruginosa ATCC 9027 in C57BL/6 mouse model of bacterial keratitis assessed as log reduction in viable bacterial count in infected cornea at 0.3 % pre-infected with bacteria for 24 hrs followed by topical administration of compound four times a day for 3 days; type: functional; settings: route top, time 3 day

SMILES	MIC (Escherichia coli [1])	MIC (Pseudomonas aeruginosa [2])	MIC (Acinetobacter baumannii [3])	MIC (Staphylococcus aureus [4])	MIC (Pseudomonas aeruginosa [5])	MIC (Escherichia coli [6])	MIC (Staphylococcus aureus [7])	MIC (Acinetobacter baumannii [8])	MIC (Acinetobacter baumannii [9])	MIC (Acinetobacter baumannii [10])	MIC (Staphylococcus aureus [11])	MIC (Staphylococcus aureus [12])	MIC (Staphylococcus aureus [13])	MIC (Staphylococcus aureus [14])	HC50 at 1 h [15]	HC50 at 1 h [16]	log(activity) (Pseudomonas aeruginosa [17])
O=C(O)c1cn(C2CC2)c2cc(N3CCNCC3)c(F)cc2c1=O [CIPROFLOXACIN]	0.049 µg/mL	0.195 µg/mL (≈ 0.589 µM)	0.78 µg/mL	0.39 µg/mL (≈ 1.18 µM)	0.195 µg/mL	0.049 µg/mL (≈ 0.148 µM)	0.39 µg/mL	0.78 µg/mL (≈ 2.35 µM)	0.39 µg/mL (≈ 1.18 µM)	0.39 µg/mL	0.39 µg/mL (≈ 1.18 µM)	0.39 µg/mL	0.39 µg/mL (≈ 1.18 µM)	0.39 µg/mL			
CCCCCn1c2ccccc2c2c(OCC(O)CN(Cc3ccccn3)Cc3ccccn3)cccc21 (stereo not given)	1.56 µg/mL	> 50 µg/mL	3.12 µg/mL	1.56 µg/mL (≈ 3.07 µM)	6.25 µg/mL	6.25 µg/mL (≈ 12.3 µM)	0.78 µg/mL	3.12 µg/mL (≈ 6.14 µM)	3.12 µg/mL (≈ 6.14 µM)	3.12 µg/mL	1.56 µg/mL (≈ 3.07 µM)	1.56 µg/mL	1.56 µg/mL (≈ 3.07 µM)	0.78 µg/mL	> 200 µg/mL	> 200 µg/mL	
Cn1c2ccccc2c2c(OCC3CO3)cccc21 (stereo not given)		> 50 µg/mL		> 50 µg/mL		> 50 µg/mL		> 50 µg/mL	> 50 µg/mL		> 50 µg/mL		> 50 µg/mL			> 200 µg/mL	
CCCCCCCCCn1c2ccccc2c2c(OCC3CO3)cccc21 (stereo not given)		> 50 µg/mL		> 50 µg/mL		> 50 µg/mL		> 50 µg/mL	> 50 µg/mL		> 50 µg/mL		> 50 µg/mL			> 200 µg/mL	
CC(C)=CCn1c2ccccc2c2c(OCC(O)CNCc3ccccn3)cccc21 (stereo not given)	> 50 µg/mL	> 50 µg/mL	> 50 µg/mL	6.25 µg/mL (≈ 15 µM)	> 50 µg/mL	50 µg/mL (≈ 120 µM)	6.25 µg/mL	> 50 µg/mL	> 50 µg/mL	> 50 µg/mL	6.25 µg/mL (≈ 15 µM)	3.12 µg/mL	6.25 µg/mL (≈ 15 µM)	3.12 µg/mL	> 200 µg/mL	> 200 µg/mL	
COc1c(N2CCNC(C)C2)c(F)cc2c(=O)c(C(=O)O)cn(C3CC3)c12 (stereo not given) [GATIFLOXACIN]																	3.03
OC(COc1cccc2[nH]c3ccccc3c12)CN(Cc1ccccn1)Cc1ccccn1 (stereo not given)	> 50 µg/mL	> 50 µg/mL	> 50 µg/mL	25 µg/mL (≈ 57 µM)	12.5 µg/mL	> 50 µg/mL	12.5 µg/mL	> 50 µg/mL	50 µg/mL (≈ 114 µM)	50 µg/mL	25 µg/mL (≈ 57 µM)	6.25 µg/mL	25 µg/mL (≈ 57 µM)	6.25 µg/mL	> 200 µg/mL	> 200 µg/mL	
CC(C)=CCn1c2ccccc2c2c(OCC(O)CN(C)C)cccc21 (stereo not given)	25 µg/mL	> 50 µg/mL	12.5 µg/mL	6.25 µg/mL (≈ 17.7 µM)	> 50 µg/mL	25 µg/mL (≈ 70.9 µM)	6.25 µg/mL	12.5 µg/mL (≈ 35.5 µM)	12.5 µg/mL (≈ 35.5 µM)	12.5 µg/mL	6.25 µg/mL (≈ 17.7 µM)	6.25 µg/mL	6.25 µg/mL (≈ 17.7 µM)	6.25 µg/mL			
OC(COc1cccc2c1c1ccccc1n2CCCC(F)(F)F)CN(Cc1ccccn1)Cc1ccccn1 (stereo not given)	3.12 µg/mL	> 50 µg/mL	3.12 µg/mL	3.12 µg/mL (≈ 5.7 µM)	12.5 µg/mL	12.5 µg/mL (≈ 22.8 µM)	0.78 µg/mL	6.25 µg/mL (≈ 11.4 µM)	6.25 µg/mL (≈ 11.4 µM)	3.12 µg/mL	1.56 µg/mL (≈ 2.84 µM)	1.56 µg/mL	3.12 µg/mL (≈ 5.7 µM)	1.56 µg/mL	> 200 µg/mL	> 200 µg/mL	
CC(C)=CCn1c2ccccc2c2c(OCC3CO3)cccc21 (stereo not given)		> 50 µg/mL		> 50 µg/mL		> 50 µg/mL		> 50 µg/mL	> 50 µg/mL		> 50 µg/mL		> 50 µg/mL			> 200 µg/mL	
c1ccc2c(c1)[nH]c1cccc(OCC3CO3)c12 (stereo not given)		> 50 µg/mL		> 50 µg/mL		> 50 µg/mL		> 50 µg/mL	> 50 µg/mL		> 50 µg/mL		> 50 µg/mL			> 200 µg/mL	
